Measured values: PubChem BioAssay AID256 (DTP/NCI, 2004)
Where “and” joins values, the source holds several entries; their conditions need not be identical. Equal entries are not always repeated. Toxic doses and inconclusive results are not listed.

System: CD2F1 mice, L1210 leukemia ip, survival T/C
Experiment: NCI In Vivo Anticancer Drug Screen. Data for tumor model L1210 Leukemia (intraperitoneal) in CD2F1 (CDF1) mice
Details: higher = longer survival
Outline: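 In this screen, transplantable tumors were grown in mice given either the compound or its vehicle. Results were expressed as the treated measurement relative to the control measurement.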

[1] = endpoint: mean survival time, dose: 100.0 mg/kg/injection, schedule: Q01DX009 (ip), vehicle: saline with Tween-80
[2] = endpoint: mean survival time, dose: 100.0 mg/kg/injection, schedule: Q01DX009 (ip), vehicle: saline
[3] = endpoint: mean survival time, dose: 200.0 mg/kg/injection, schedule: Q01DX009 (ip), vehicle: saline with Tween-80
[4] = endpoint: mean survival time, dose: 200.0 mg/kg/injection, schedule: Q01DX009 (ip), vehicle: saline
[5] = endpoint: mean survival time, dose: 400.0 mg/kg/injection, schedule: Q01DX009 (ip), vehicle: saline with Tween-80
[6] = endpoint: mean survival time, dose: 400.0 mg/kg/injection, schedule: Q01DX009 (ip), vehicle: saline
[7] = endpoint: mean survival time, dose: 100.0 mg/kg/injection, schedule: Q04DX003 (ip), vehicle: saline with Tween-80
[8] = endpoint: mean survival time, dose: 200.0 mg/kg/injection, schedule: Q04DX003 (ip), vehicle: saline with Tween-80
[9] = endpoint: mean survival time, dose: 400.0 mg/kg/injection, schedule: Q04DX003 (ip), vehicle: saline with Tween-80

O=C(/C(=N/N=C\c1ccc([N+](=O)[O-])cc1)c1ccccc1)c1ccccc1
T/C [1]: 101 % of control | T/C [2]: 109 % of control | T/C [3]: 95 % of control | T/C [4]: 109 % of control | T/C [5]: 95 % of control | T/C [6]: 104 % of control

O=C(NC(=S)Nc1ccc(CCO)cc1)c1cccc(Br)c1
T/C (endpoint: mean survival time, dose: 100.0 mg/kg/injection, schedule: Q01DX001 (ip), vehicle: saline with Tween-80): 104 % of control | T/C [1]: 97 % of control and 98 % of control | T/C (endpoint: mean survival time, dose: 100.0 mg/kg/injection, schedule: Q04DX002 (ip), vehicle: saline with Tween-80): 88 % of control and 101 % of control | T/C [7]: 100 % of control | T/C (endpoint: mean survival time, dose: 200.0 mg/kg/injection, schedule: Q01DX001 (ip), vehicle: saline with Tween-80): 98 % of control | T/C [3]: 101 % of control and 108 % of control | T/C (endpoint: mean survival time, dose: 200.0 mg/kg/injection, schedule: Q04DX002 (ip), vehicle: saline with Tween-80): 91 % of control and 92 % of control | T/C [8]: 100 % of control | T/C (endpoint: mean survival time, dose: 400.0 mg/kg/injection, schedule: Q01DX001 (ip), vehicle: saline with Tween-80): 104 % of control | T/C [5]: 86 % of control and 106 % of control | T/C (endpoint: mean survival time, dose: 400.0 mg/kg/injection, schedule: Q04DX002 (ip), vehicle: saline with Tween-80): 95 % of control | T/C [9]: 93 % of control

CS(=O)(=O)SC(F)(F)F
T/C (endpoint: mean survival time, dose: 5.0 mg/kg/injection, schedule: Q01DX001 (ip), vehicle: saline): 103 % of control

S=C(CSc1ccccc1)Nc1cccc2ccccc12
T/C [7]: 101 % of control | T/C [8]: 91 % of control | T/C [9]: 93 % of control

CC1(C)OCC2OC3(CO)NP(=O)(N(CCCl)CCCl)OC3C2O1 (centres undefined)
T/C (endpoint: mean survival time, dose: 62.5 mg/kg/injection, schedule: Q01DX001 (ip), vehicle: distilled water + Tween-80): 102 % of control | T/C (endpoint: mean survival time, dose: 125.0 mg/kg/injection, schedule: Q01DX001 (ip), vehicle: distilled water + Tween-80): 101 % of control | T/C (endpoint: mean survival time, dose: 250.0 mg/kg/injection, schedule: Q01DX001 (ip), vehicle: distilled water + Tween-80): 93 % of control

C=C[Si](C=C)(C=C)C=C
T/C (endpoint: mean survival time, dose: 100.0 mg/kg/injection, schedule: Q01DX001 (ip), vehicle: saline): 101 % of control | T/C (endpoint: mean survival time, dose: 200.0 mg/kg/injection, schedule: Q01DX001 (ip), vehicle: saline): 104 % of control | T/C (endpoint: mean survival time, dose: 400.0 mg/kg/injection, schedule: Q01DX001 (ip), vehicle: saline): 107 % of control

CN(C(N)=O)C1CCCC1
T/C [2]: 102 % of control | T/C [4]: 105 % of control | T/C [6]: 107 % of control

O=C1C=CC(=O)C2CC=CCC12 (centres undefined)
T/C (endpoint: mean survival time, dose: 10.0 mg/kg/injection, schedule: Q01DX009 (ip), vehicle: saline with Tween-80): 103 % of control | T/C (endpoint: mean survival time, dose: 12.5 mg/kg/injection, schedule: Q04DX003 (ip), vehicle: saline with Tween-80): 101 % of control | T/C (endpoint: mean survival time, dose: 20.0 mg/kg/injection, schedule: Q01DX009 (ip), vehicle: saline with Tween-80): 107 % of control | T/C (endpoint: mean survival time, dose: 25.0 mg/kg/injection, schedule: Q04DX003 (ip), vehicle: saline with Tween-80): 104 % of control | T/C (endpoint: mean survival time, dose: 40.0 mg/kg/injection, schedule: Q01DX009 (ip), vehicle: saline with Tween-80): 98 % of control | T/C (endpoint: mean survival time, dose: 50.0 mg/kg/injection, schedule: Q04DX003 (ip), vehicle: saline with Tween-80): 98 % of control | T/C [7]: 100 % of control | T/C [8]: 93 % of control | T/C [9]: 100 % of control

O=C(O)CCCc1ccc(Oc2ccccc2)cc1
T/C (endpoint: mean survival time, dose: 100.0 mg/kg/injection, schedule: Q01DX009 (ip), vehicle: other): 94 % of control | T/C (endpoint: mean survival time, dose: 100.0 mg/kg/injection, schedule: Q04DX003 (ip), vehicle: other): 106 % of control | T/C (endpoint: mean survival time, dose: 200.0 mg/kg/injection, schedule: Q01DX009 (ip), vehicle: other): 95 % of control | T/C (endpoint: mean survival time, dose: 200.0 mg/kg/injection, schedule: Q04DX003 (ip), vehicle: other): 93 % of control | T/C (endpoint: mean survival time, dose: 400.0 mg/kg/injection, schedule: Q01DX009 (ip), vehicle: other): 96 % of control | T/C (endpoint: mean survival time, dose: 400.0 mg/kg/injection, schedule: Q04DX003 (ip), vehicle: other): 95 % of control

COC(=O)c1c(CC#N)ncn1C1OC(COC(C)=O)C(OC(C)=O)C1OC(C)=O (centres undefined)
T/C (endpoint: median survival time, dose: 8.25 mg/kg/injection, schedule: Q01DX005 (ip), vehicle: water): 104 % of control | T/C (endpoint: median survival time, dose: 11.25 mg/kg/injection, schedule: Q01DX005 (ip), vehicle: water): 100 % of control | T/C (endpoint: median survival time, dose: 16.5 mg/kg/injection, schedule: Q01DX005 (ip), vehicle: water): 101 % of control | T/C (endpoint: median survival time, dose: 22.5 mg/kg/injection, schedule: Q01DX005 (ip), vehicle: water): 98 % of control | T/C (endpoint: median survival time, dose: 33.0 mg/kg/injection, schedule: Q01DX005 (ip), vehicle: water): 101 % of control | T/C (endpoint: median survival time, dose: 45.0 mg/kg/injection, schedule: Q01DX005 (ip), vehicle: water): 101 % of control | T/C (endpoint: median survival time, dose: 66.0 mg/kg/injection, schedule: Q01DX005 (ip), vehicle: water): 100 % of control | T/C (endpoint: median survival time, dose: 90.0 mg/kg/injection, schedule: Q01DX005 (ip), vehicle: water): 100 % of control | T/C (endpoint: median survival time, dose: 132.0 mg/kg/injection, schedule: Q01DX005 (ip), vehicle: water): 101 % of control | T/C (endpoint: median survival time, dose: 180.0 mg/kg/injection, schedule: Q01DX005 (ip), vehicle: water): 100 % of control

CCN(CC)CCCNc1c2ccc(Cl)cc2nc2ccc(OC)nc12
T/C (endpoint: mean survival time, dose: 50.0 mg/kg/injection, schedule: Q01DX009 (ip), vehicle: saline with Tween-80): 109 % of control | T/C [1]: 97 % of control | T/C [3]: 114 % of control

c1cc[c]([Pb]([c]2ccccc2)([c]2ccccc2)[n]2cccc2)cc1
T/C (endpoint: mean survival time, dose: 6.25 mg/kg/injection, schedule: Q01DX009 (ip), vehicle: acetone): 96 % of control | T/C (endpoint: mean survival time, dose: 12.5 mg/kg/injection, schedule: Q01DX009 (ip), vehicle: acetone): 88 % of control | T/C (endpoint: mean survival time, dose: 12.5 mg/kg/injection, schedule: Q04DX003 (ip), vehicle: acetone): 88 % of control | T/C (endpoint: mean survival time, dose: 25.0 mg/kg/injection, schedule: Q04DX003 (ip), vehicle: acetone): 93 % of control

CSc1ncnc2c1ncn2C1OC(CO)C(O)C1O (centres undefined)
T/C (endpoint: mean survival time, dose: 4.0 mg/kg/injection, schedule: Q01DX009 (ip), vehicle: saline): 118 % of control | T/C (endpoint: mean survival time, dose: 5.0 mg/kg/injection, schedule: Q01DX005 (ip), vehicle: saline): 118 % of control and 124 % of control | T/C (endpoint: mean survival time, dose: 5.0 mg/kg/injection, schedule: Q01DX007 (ip), vehicle: saline): 110 % of control | T/C (endpoint: mean survival time, dose: 5.0 mg/kg/injection, schedule: Q01DX009 (ip), vehicle: saline): 114 % of control | T/C (endpoint: mean survival time, dose: 5.0 mg/kg/injection, schedule: Q03DX003 (ip), vehicle: saline): 115 % of control | T/C (endpoint: mean survival time, dose: 5.0 mg/kg/injection, schedule: Q04DX003 (ip), vehicle: saline): 103 % of control | T/C (endpoint: mean survival time, dose: 10.0 mg/kg/injection, schedule: Q01DX007 (ip), vehicle: saline): 116 % of control | T/C (endpoint: mean survival time, dose: 10.0 mg/kg/injection, schedule: Q01DX009 (ip), vehicle: saline): 121 % of control | T/C (endpoint: mean survival time, dose: 10.0 mg/kg/injection, schedule: Q03DX003 (ip), vehicle: saline): 122 % of control | T/C (endpoint: mean survival time, dose: 10.0 mg/kg/injection, schedule: Q04DX003 (ip), vehicle: saline): 112 % of control | T/C (endpoint: mean survival time, dose: 12.5 mg/kg/injection, schedule: Q01DX009 (ip), vehicle: saline): 150 % of control | T/C (endpoint: mean survival time, dose: 20.0 mg/kg/injection, schedule: Q01DX005 (ip), vehicle: saline): 154 % of control | T/C (endpoint: mean survival time, dose: 20.0 mg/kg/injection, schedule: Q04DX003 (ip), vehicle: saline): 114 % of control | T/C (endpoint: mean survival time, dose: 25.0 mg/kg/injection, schedule: Q01DX001 (ip), vehicle: saline): 118 % of control | T/C (endpoint: mean survival time, dose: 32.0 mg/kg/injection, schedule: Q01DX009 (ip), vehicle: saline): 115 % of control | T/C (endpoint: mean survival time, dose: 40.0 mg/kg/injection, schedule: Q01DX005 (ip), vehicle: saline): 164 % of control and 166 % of control | T/C (endpoint: mean survival time, dose: 64.0 mg/kg/injection, schedule: Q01DX009 (ip), vehicle: saline): 80 % of control | T/C (endpoint: mean survival time, dose: 80.0 mg/kg/injection, schedule: Q01DX005 (ip), vehicle: saline): 119 % of control | T/C (endpoint: median survival time, dose: 18.0 mg/kg/injection, schedule: Q01DX009 (ip), vehicle: saline): 155 % of control | T/C (endpoint: median survival time, dose: 27.0 mg/kg/injection, schedule: Q01DX009 (ip), vehicle: saline): 170 % of control and 191 % of control | T/C (endpoint: median survival time, dose: 30.0 mg/kg/injection, schedule: Q01DX009 (ip), vehicle: saline): 158 % of control and 161 % of control | T/C (endpoint: median survival time, dose: 35.0 mg/kg/injection, schedule: Q01DX009 (ip), vehicle: saline): 183 % of control | T/C (endpoint: median survival time, dose: 45.0 mg/kg/injection, schedule: Q01DX009 (ip), vehicle: saline): 119 % of control and 108 % of control | T/C (endpoint: median survival time, dose: 123.0 mg/kg/injection, schedule: Q01DX001 (ip), vehicle: saline): 157 % of control | T/C (endpoint: median survival time, dose: 185.0 mg/kg/injection, schedule: Q01DX001 (ip), vehicle: saline with Tween-80): 160 % of control | T/C (endpoint: median survival time, dose: 185.0 mg/kg/injection, schedule: Q01DX001 (ip), vehicle: saline): 151 % of control
